Where two headings read alike, the source gives them in different places. Marks after values point to notes of the source that are not given here.
What was measured:
SERCA 2a gene = assay: Quantitative real time-PCR of SERCA 2a gene mRNA in SHR heart; type: in vivo, rat; settings: 3 h after feeding the peptide, GAPDH reference, three biological replicates
Procedure: Quantitative real time-PCR (qRT-PCR) analysis was performed using SYBR Premix EX Taq (TaKaRa) on a Rotor-Gene R[…] detection system (Corbett Research) as described by Zhang et al. (2010) with the exception of the annealing temperature at 58 °C when using the primers […]) and […]), [26]. Gene GAPDH was used as reference gene with primer […]) and […]). Three biological replicates were used, and each with three technical repeats.

SHR = tested on: SHR; design: method as in 5 sources, ref 30 = [30]; PMID 7673515; doi:10.3168/jds.S0022-0302(95)76745-5; 30 Nakamura Y , Yamamoto N , Sakai K , Takano T ( 1995 ) Antihypertensive effect of sour milk and peptides isolated from it that are inhibitors to angiotensin I-converting enzyme . J Dairy Sci 78 : 12 ||| ref 31 = [31]; PMID 8880454; doi:10.3168/jds.S0022-0302(96)76487-1; 31 Maeno M , Yamamoto N , Takano T ( 1996 ) Identification of an antihypertensive peptide from casein hydrolysate produced by a proteinase from Lactobacillus helveticus CP790 . J Dairy Sci 79 : 1316 – ||| ref 32 = [32]; PMID 9891260; doi:10.3168/jds.S0022-0302(98)75878-3; 32 Abubakar A , Saito T , Kittazawa H , Kawai Y , Itoh T ( 1998 ) Structural analysis of new antihypertensive peptides derived from cheese whey protein by proteinase K digestion . J Dairy Sci 81 : 313 ||| ref 33 = [33]; PMID 10794501; doi:10.1016/s0024-3205(00)00471-9; 33 Nurminen ML , Sipola M , Kaarto H , Pihlanto-Leppälä A , Piilola K , et al ( 2000 ) α-Lactorphin lowers blood pressure measured by radiotelemetry in normotensive and spontaneously hypertensive rats ||| ref 34 = [34]; 34 Miguel M , Contreras MM , Recio I , Aleixandre A ( 2009 ) ACE-inhibitory and antihypertensive properties of a bovine casein hydrolysate . Food Chemistry 112 : 211 – 214 .; settings: cited from earlier work
[1] = tested on: spontaneously hypertensive rats (SHR/Slac); assay: Systolic blood pressure of SHR after single intragastric administration (tail-cuff); type: in vivo, rat; settings: for dose-dependence of the lowering SBP effect: 0.75 versus […] BW, relative lowering SBP rate
Procedure: The spontaneously hypertensive, strain SHR/Slac male rats (Production Permit Number: SCXK (Shanghai) 2007-0005; Body weight, average ∼400 g; Age, 20 weeks old), were purchased from Shanghai SLAC Laboratory Animal Co. Ltd. (Shanghai, China). The SHR were housed in cages and maintained under specific pathogen-free conditions on a cycle of 12 h of light and 12 h of darkness at Center of Experimental Animal, School of Pharmacy, Shanghai Jiao Tong University (Use Permit Number: SYXK (Shanghai) 2007-0025). The temperature and humidity in the cages were controlled at 24±1°C and 60±5%, respectively. SHRs were acclimatized for 7 days prior to experimentation. The rats were fed a standard laboratory diet (SLACOM; Shanghai, China), and tap water was freely available. After the hexapeptide water-solution (dose, 1.5 mg/kg body weight) injection with intragastric administration in six SHR, the systolic blood pressure (SBP) of each rat was measured by the tail-cuff method with a programmable electrosphygmomanometer (model SoftronBP-98A; Softron Beijing Incorporated, Beijing, China) at 1 h interval. A heater lamp was on the tail to improve signal quality. To obtain an accurate SBP reading, rats were first habituated to the SBP measurement device. Definitive measurements began when rats remained unperturbed into the chamber throughout the inflation-deflation cycles. The SBP in each SHR with administration of distilled water (2 mL) was used as the control value. The data are expressed as means and standard errors (n = 6).
To evaluate whether the lowering SBP effect was the dose-dependence relative to the test peptides, the SHR were also treated with 0.75 mg/kg BW peptides water-solution as above program. And the relative lowering SBP effect was calculated as the following equation (Eq.2): [drawing 2] (Eq.2) where SBPinitial is the initial SBP values of SHR right before the peptide administration, SBPlowest is the lowest SBP value obtained within 5 h after the administration with the tested peptides.

ACE = settings: literature value; cited from earlier work
Source text: In the past decades, researchers have focused on the natural nutraceutical resources and investigated the potential antihypertensive activity in vitro by ACE-inhibitory activity, [5]. Some natural phytochemicals from plants, including rutin, quercetin glycoside, epicatechin-tetramer and cyanidin-3-O-sambubioside have been extensively studied as a substitute for chemo-pharmaceuticals [6]–[8]. Also, some antihypertensive peptides have been identified from hydrolyzed or fermented milk and other dietary sources. Among them, the Isoleucine-Proline-Proline (IPP) and Valine-Proline- ...

ACE from rabbit lungs = assay: ACE inhibitory activity in vitro (HHL hydrolysis, HPLC of hippuric acid); type: biochemical; settings: 10 µmol/L peptide, crude ACE extract from rabbit lung, 5 mmol/L HHL, 37°C, 10 min pre-incubation + 20 min, RP-HPLC 228 nm, mean ± SD
Procedure: ACE extracts were prepared and its activity was determined according to the method of Nakamura et al. and Wu & Ding with some modifications. Briefly, the fresh rabbit lung without connective tissues was cut into pieces and washed with precooled NaCl (0.7%) to get rid of blood. The tissue pieces were homogenized in precooled 5-fold the volume of fresh rabbit lung weight (v/w, mL/g) of 100 mM sodium borate buffer (BBS) (pH 8.3). The mixtures were then filtrated with 3-ply gauze followed by ultracentrifuged for 40 min (40,000 g, at 4°C). The supernatant as crude ACE extracts was retained and stored at 5°C [24].
The ACE activity was assayed using the method described by Wu & Ding. It was based on the hydrolysis of hippuryl-L-histidyl-L-leucine (HHL) by ACE to hippuric acid (HA) and histidyl-leucine (HL) as products. The HA release from HHL was directly related to the ACE activity. One unit (U) of ACE was defined as the amount of enzyme catalyzing the release of 1 µmol/L HA from the substrate HHL per minute at 37°C. Briefly, 30 µL of ACE crude extracts were mixed with 100 µL of BBS (pH 8.3). The mixture was incubated at 37°C for 10 min. Then, 200 µL of 5 mmol/L HHL solution substrate were added and the reaction mixture was incubated at 37°C for 20 min. The reaction was stopped by the addition of 250 µL of 1 mol/L HCl. 10 µL of solution were analyzed by reversed-phase HPLC and detected at the wavelength of λ = 228 nm. The column was eluted with 20% acetonitrile (in water, v/v) containing 0.1% (v/v) TFA on AKATA purifier 10 with a flow rate of 1.0 mL/min. The blank experiment was executed with premixing 250 µL of 1 mol/L HCl and 30 µL of ACE crude extracts to inhibit the activity of ACE.
Evaluation of ACE inhibitory activity was assayed using the same method described in above section with some modifications. Briefly, 2 µL of ACE crude extracts were mixed with 80 µL of 10 µmol/L each selected peptide solution. The mixture was incubated at 37°C for 10 min, after which 200 µL of 5 mmol/L HHL solution substrate were added and the reaction mixture was incubated at 37°C for 20 min. Finally, 250 µL of 1 mol/L HCl were added to stop the reaction and 10 µL of solution were used to analyze HA release from HHL by reversed-phase HPLC with the same condition described above and detected at the wavelength of λ = 228 nm. Controls with equal volume of BBS as sample substitute were included for each measurement, and the blank experiment was executed with premixing 250 µL of 1 mol/L HCl and 2 µL of ACE crude extracts to inhibit the activity of ACE, firstly.
The evaluation of ACE inhibition was based on the measurement of the HA peak areas, and the degree of ACE inhibition (%) was calculated according to Eq.1: [drawing 1] (Eq.1) […]

[2] = normoglycemic and normotensive animal model; cited from earlier work
Source text: It is necessary to evaluate the ACE-inhibitor effect on the blood glucose level of hyperpietics simultaneously since blood sugar was positively correlated with blood pressure (systolic and diastolic), and this correlation was independent of common associations with age, body mass index (BMI) and heart rate.

Compound | transcriptional level of SERCA 2a gene (SERCA 2a gene) | dose-dependence of the lowering SBP effect [1] | ACE inhibition rate (%) (ACE from rabbit lungs) | other results
Isoleucine-Proline-Proline [IPP] | 3.80 times of the control | dose-dependent effect | 56.97±2.40^a % | decrease in SBP (SHR; SHR, 0.3 mg/kg BW): 21.7±4.1 mmHg; IC50 (ACE): 5 µM
Valine-Proline-Proline-Isoleucine-Proline-Proline [VPPIPP] | 3.98 times of the control | dose-dependent effect | 34.71±4.38^b % | relative lowering SBP rate, comparison between peptides ([1]; 0.75 mg/kg BW, intragastric): did not show significantly different from IPPVPP and IPP
C[C@H](CS)C(=O)N1CCC[C@H]1C(=O)O [captopril] | – | – | – | effect on postprandial blood glucose levels [2]: no significant effect; decrease in SBP (SHR; male SHR, 50 mg/kg, 4–6 h after administration): about 53±4 mmHg
Valine-Proline-Proline [VPP] | – | – | 37.62±6.68^b % | IC50 (ACE): 9 µM
YGLF [whey protein derived tetrapeptide] | – | – | – | reduction of SBP (SHR; SHR, subcutaneous, 0.1 mg/kg BW): 23±4 mmHg
Isoleucine-Proline-Proline-Valine- Proline-Proline [IPPVPP] | 2.70 times of the control | did not | 13.17±0.25^c % | –
KVLPVPQ [heptapeptide KVLPVPQ (β-casein 169–175aa)] | – | – | – | maximal decrease in SBP (SHR; SHR, 2 mg/kg BW): 31.5±5.6 mmHg
